Assay results taken from patent publication US6590140B1, “Metal-regulated transporters and uses therefor” (Trustees of Dartmouth College, priority 1996, dated 2003).
Entries after “also recorded” stand apart in the source; their conditions may differ.

Legend:
[1] = molecular target: T1, high affinity zinc uptake system (Zrt1p) (Saccharomyces cerevisiae, UniProt P32804); experiment: 65Zn uptake assay in yeast, high affinity zinc uptake system; assay type: cell-based
T1 construct: endogenous in cells; host or cells: S. cerevisiae DY1457 (wild type, zinc-limited) and ZHY2 (zrt2); one kinetic value comes from ZHY1 carrying pOE1 (ZRT1 ORF under the GAL1 promoter)
Method: (§1) Zinc uptake assays were performed as described previously for iron uptake (Eide et al. J. Biol. Chem. 267:20774-20781) except that ^65ZnCl2 (Amersham Corp., Arlington Heights, Ill.) and LZM-EDTA were substituted for ^59FeCl3 and LIM-EDTA. Cells were incubated at 30° C. with ^65Zn for five minutes, filtered, and washed with 10 ml ice-cold SSW. Cell-associated radioactivity was measured by liquid scintillation. Kinetic values were derived using KinetAsyst software (IntelliKinetics, Princeton, N.J.). Zinc accumulation was measured in cells grown in LZM medium supplemented with […] ^65Zn plus nonradioactive zinc to the indicated final concentration. Aliquots (0.5 ml) were filtered, washed with 10 ml ice-cold SSW, and counted by liquid scintillation. b-galactosidase activity was assayed as described by Guarente (Guarante, L. (1983) Methods Enzymol101:181-191).
(§2) Zinc uptake assays were performed as described previously for iron uptake (Eide et al. (1992) J. Biol. Chem. 267:20774-20781) except that ^65ZnCl2 (Amersham) and LZM-EDTA were substituted for ^59FeCI3 and LIM-EDTA, respectively. Cells were incubated for 5 minutes in LZM-EDTA plus the indicated concentration of ^65Zn, collected on glass fiber filters (Schleicher and Schuell), washed with 10 ml ice-cold SSW (1 mM EDTA, 20 mM trisodium citrate, 1 mM KH2PO4, 1 mM CaCl2, 5 mM MgSO4, 1 mM NaCl pH 4.2), and cell-associated radioactivity was measured by liquid scintillation counting. Cells were starved for glucose by incubating them in LZM-EDTA prepared without glucose for one hour at 30° C. prior to assay. Michaelis-Menten kinetic values were determined using […] software (Intellikinetics, Princeton, N.J.). Stock solutions of the chloride salts of Co, Cu, Mg, Mn, and Ni were prepared in distilled water at a concentration of 100 mM. The nonradioactive ZnCl2 stock was prepared at 100 mM in 0.02 N HCl and the FeCl3 stock was prepared at 50 mM in 0.1 N HCl. The statistical significance of the differences of values relative to controls was determined with one-way analysis of variance (ANOVA) followed by a Dunnett multiple comparison test. β-galactosidase activity was assayed in cells harvested at an OD600 of 0.5-2.0 as described by Guarente (Guarente, L. (1983) Methods Enzymol. 101:181-191) and activity is expressed as the change in absorbance at 420 nm×1000 divided by (min×ml of culture used×OD600 of the culture). Cell-associated zinc was measured in parallel cultures supplemented with tracer amounts of ^65Zn (10 μM) and nonradioactive zinc to the indicated final concentration. Aliquots (0.5 ml) were filtered, washed with 10 ml ice-cold SSW, and radioactivity measured by liquid scintillation.
(§3) To determine if ZRT1 plays a role in zinc uptake, the biochemical properties of this process in wild type cells were first characterized. […] Wild type (FIG. 10, DY1457, squares) and zrt1 mutant (FIG. 10, ZHY1, circles) cells were grown to exponential phase in zinc-limited (open symbols, FIG. 10) and zinc-replete (FIG. 10, closed symbols) media and assayed for zinc uptake rate over a range ZnSO4 concentrations. Zinc-limited media was LZM+10 μM zinc for the wild type and LZM+500 μM zinc for the mutant. Zinc-replete conditions were LZM+1000 μM for both strains. ZHY1(pOE1) cells (FIG. 10, triangles) were grown in zinc-replete SDgal medium.
(§4) Mutant zrt1 (ZHY1) cells were grown in LZM supplemented with 1 mM ZnCl2. Cells were incubated with 10 μM ^65Zn for the indicated times at either […]

[2] = molecular target: T2, low affinity zinc uptake system (Zrt2p) (Saccharomyces cerevisiae, UniProt Q12436); assay type: cell-based
T2 construct: endogenous in cells; host or cells: S. cerevisiae ZHY1 (zrt1::LEU2) and zinc-replete DY1457; some values come from ZHY1 carrying pMC4 (multicopy genomic ZRT2) or pOE2 (ZRT2 ORF under GAL1)
Method: as §1, §2, §3, §4

[3] = molecular target: T3, IRT1 (Arabidopsis thaliana, UniProt Q38856); experiment: 55Fe uptake in fet3 fet4 yeast expressing IRT1; assay type: cell-based; settings: for effect on the rate of iron uptake by IRT1: 10 μM metal, 10 times the radiolabeled iron, Fe(II) with 1 mM ascorbate, 10 min
T3 construct: contain a single 1017 bp open reading frame capable of encoding a polypeptide of 339 amino acids; expressed in transfected cells; host or cells: S. cerevisiae fet3 fet4 strain DEY1453 carrying pIRT-1 (pFL61 library vector, phosphoglycerate kinase promoter)
T3 sequence (Q38856 9-347 limits assumed): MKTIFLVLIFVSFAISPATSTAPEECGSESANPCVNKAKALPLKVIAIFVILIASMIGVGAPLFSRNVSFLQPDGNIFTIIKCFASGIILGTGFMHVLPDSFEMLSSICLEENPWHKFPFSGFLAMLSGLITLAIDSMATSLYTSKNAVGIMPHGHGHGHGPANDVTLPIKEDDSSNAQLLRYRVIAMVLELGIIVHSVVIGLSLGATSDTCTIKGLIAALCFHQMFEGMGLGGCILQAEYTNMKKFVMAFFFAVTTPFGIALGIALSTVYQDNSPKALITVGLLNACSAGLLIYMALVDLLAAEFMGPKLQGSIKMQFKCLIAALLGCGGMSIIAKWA
Method: Iron uptake assays using ^55FeCl3 (Amersham, Arlington Heights, Ill.) were performed as described (Eide, D. et al. (1992) J. Biol. Chem. 267: 20774-20781) except that MGN (10 mM Mes/2% glucose/1 mM nitrilotriacetic acid, pH 6.1) was used for the assay buffer. Where noted, 1 mM sodium ascorbate was added to reduce Fe(III) to Fe(II). Stock solutions of the chloride salt of each metal (except for iron) were prepared in water at a concentration of 100 mM and diluted into MGN to a final concentration of 10 μM before addition of the cells. The ^56FeCl3 stock was 50 mM prepared in 0.1 M HCl. The statistical significance of differences in values relative to controls was determined using STATVIEW software (Abacus Concepts, Berkeley, Calif.). Data was subjected to one-way analysis of variance (ANOVA) followed by a Scheffe's test.
To determine if IRT1 encodes an iron transporter, ^55Fe uptake rates were examined in a fet3 fet4 strain expressing IRT1. Little or no uptake was detected at 0° C. for either IRT1-expressing or untransformed control cells (FIG. 2A). The fet3 fet4 mutant strain DEY1453 (circles) and DEY1453 transformed with pIRT-1 (squares) were grown to exponential phase in SD glucose and assayed for iron uptake with ^55Fe. (A) Time- and temperature-dependence of iron accumulation assayed in MGN with 1 mM ascorbate and 5 μM ^55FeCl3 assayed at 30° C. (open symbols) or 0° C. (solid symbols). The dashed line marked with open triangles represents the IRT1-dependent accumulation, i.e., the accumulation of iron by the untransformed strain at 30° C. subtracted from the accumulation of the pIRT-1-bearing strain at 30° C. […] The IRT1-dependent rate was ≈3-fold higher than the control uptake rate. No increased uptake was apparent in strains bearing either of two randomly selected clones from the library, indicating the dependence of these uptake effects on expression of IRT1. The iron uptake activity dependent on IRT1 expression was also concentration-dependent and saturable (FIG. 2B). The same strains as in A were assayed for iron uptake rates for 10 min over a range of concentrations. The dashed lines marked with open triangles represents the IRT1-dependent uptake rate, i.e., background uptake rate of the untransformed strain subtracted from the corresponding rate of the pIRT-1-bearing strains. (Inset) Eadie-Hofstee plot of the IRT1-dependent uptake data. Each point represents the mean of three experiments each performed in duplicate. The standard deviation within each experiment was less that 20% of the corresponding mean.
The experiments described above were conducted with iron supplied as Fe(II), i.e., in the presence of ascorbate, an agent capable of reducing Fe(III) to Fe(II). To determine if Fe(II) is the preferred substrate over Fe(III), assays were carried out in the absence of ascorbate where iron is supplied to the cells as Fe(III). […] The fet3 fet4 mutant strain DEY1453 and DEY1453 transformed with pIRT-1 were grown to exponential phase is SD glucose and assayed for iron uptake with 1 μM FeCl3 in MGN for 10 min. The values shown are the IRT1-dependent rates, i.e., the untransformed strain control values were subtracted from the DEY1453 pIRT-1 values and represent the means of four replicates. The asterisks indicate significant of differences from the control values (P<0.05). Assays were performed in the absence [Fe(III)] or presence [Fe(II)] of 1 mM ascorbate. […] Although yeast are capable of reducing Fe(III) to Fe(II) through the action of plasma membrane Fe(III) reductases, this rate of cell-mediated reduction is slower than reduction by ascorbate and therefore may be rate-limiting for IRT1-dependent uptake. To assess if metals other than iron are potential substrates for IRT1, several transition metals were tested for their ability to inhibit accumulation of iron in IRT1-expressing cells (FIG. 3B). Assays were conducted in the absence (−) or presence of 10 μM metal. […]

[4] = system: zrt1 mutant (ZHY1) cells; assay type: cell-based, Saccharomyces cerevisiae; settings: 500 μM metal added to iron-limiting medium LIM (1 mM EDTA)
Method: Strains used were DY1457 (MATα ade6 can1 his3 leu2 trp1 ura3) and ZHY1 (MaTα ade6 can1 his3 leu2 trp1 ura3 zrt1:: LEU2). Yeast were grown in standard culture media (SD, YPD) (Eide, D., Davis-Kaplan S., Jordan, I., Sipe, D., and Kaplan, J. (199: 2) J. Biol. Chem. 267, 20774-20781) supplemented with necessary auxotrophic requirements and either 2% glucose or 2% galactose. A zinc-limiting medium (LZM) was prepared in the same manner as LIM (Eide and Guarenete (1992) J. Gen. Microbiol. 138:347-354) except that […]. Cell number in liquid cultures was determined by measuring the optical density of cell suspensions at 600 nm (A600) and converting to cell number with a standard curve.
Strains used were DY1457 (MATα ade6 can1 his3 leu2 trp1 ura3), ZHY1 (AMTα ade6 can1 his3 leu2 trp1 ura3 zrt1::LEU2), ZHY2 (MATα ade6 can1 his3 leu2 trp1 ura3 zrt2::HIS3), and ZHY3 (MATα ade6 can1 his3 leu2 trp1 ura3 zrt1::LEU2 zrt2::HIS3). Yeast were grown in YP or SD media (Sherman et al. (1986) Methods in Yeast Genetics, Cold Spring Harbor Laboratory, Cold Spring Harbor, N.Y.) supplemented with necessary auxotrophic requirements and either 2% glucose or 2% galactose. Zinc-limiting YP and SD agar plates contained either bathophenanthroline disulfonate (BPS, 200 μM) or EDTA (1 mM), respectively. A liquid zinc-limiting medium (low zinc medium, LZM) was prepared in the same manner as low iron medium (LIM) (Eide and Guarente (1992) J. Gen. Microbiol. 138:347-354) except that the […]. LZM is similar in composition to SD medium with two modifications essential to controlling zinc availability. First, 1 mM EDTA is added to provide buffering for the concentration of free metal ions. Second, the medium is pH-buffered at 4.2 with 20 mM citrate to prevent pH changes that could alter the metal binding ability of EDTA. LZM was also prepared without EDTA ([…]) which is less zinc-limiting because the predominant chelator in this medium, citrate, binds zinc with less affinity than does EDTA. The concentrations of free (i.e. unchelated) zinc were calculated using MAXCHELATOR software (Chris Patton, Stanford University). Cell number in liquid cultures was determined by measuring the absorbance of cell suspensions at 600 nm (OD600) and converting to cell number with a standard curve.
To examine the function of ZRT1, a disruption mutation, zrt1::LEU2, was constructed by inserting the LEU2 gene into the center of ZRT1 (FIG. 6). This zrt1 disruption allele was then introduced into a haploid yeast strain. […] Because of the high EDTA concentration in LIM (1 mM), this medium is expected to have low available levels of other metals that are bound tightly by this chelator. Supplements of other metals were tested for improved growth of the zrt1 mutant in LIM. […] To study this effect further, a low zinc medium, LZM, was developed in which cell growth could be limited by zinc deficiency and the growth response of the wild type and zrt1 mutant strains to increasing levels of supplemented zinc was examined. Wild type (DY1457, squares) and zrt1 mutant (ZHY1, circles) cells were inoculated into LZM supplemented with the indicated amount of ZnSO4 and grown for 16 hours prior to cell number determination. […] Mutant zrt1 cells attained this same maximum number of cell divisions only with zinc supplements of 750 μM or more, i.e. a 75-fold increase in the zinc requirement of the zrt1 mutant compared to the wild type.
To further assess the role of the low affinity system as a source of zinc, growth of wild type and zrt2 cells in a zinc-limiting medium, LZM, supplemented with increasing amounts of zinc was examined. The same strains as in FIG. 15 were grown for six hours in SD glucose medium, harvested, washed in LZM, and reinoculated into either LZM (FIG. 15A) or LZM-EDTA (FIG. 15B) supplemented with the indicated concentrations of ZnCl2 ([Zn]T). […]

[5] = 1 mM ascorbate, control experiments

T2 sequence (Q12436 whole entry): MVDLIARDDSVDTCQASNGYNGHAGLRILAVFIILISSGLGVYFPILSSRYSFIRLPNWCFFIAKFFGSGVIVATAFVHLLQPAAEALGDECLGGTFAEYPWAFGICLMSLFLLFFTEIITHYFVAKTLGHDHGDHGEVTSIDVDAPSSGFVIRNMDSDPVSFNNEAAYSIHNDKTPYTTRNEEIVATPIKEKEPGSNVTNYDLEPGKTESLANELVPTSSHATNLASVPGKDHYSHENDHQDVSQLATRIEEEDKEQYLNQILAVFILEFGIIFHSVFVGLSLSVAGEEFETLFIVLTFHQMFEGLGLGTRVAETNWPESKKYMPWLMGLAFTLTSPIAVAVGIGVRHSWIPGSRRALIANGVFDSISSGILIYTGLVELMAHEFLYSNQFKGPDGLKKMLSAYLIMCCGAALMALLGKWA
T1 sequence (P32804 whole entry): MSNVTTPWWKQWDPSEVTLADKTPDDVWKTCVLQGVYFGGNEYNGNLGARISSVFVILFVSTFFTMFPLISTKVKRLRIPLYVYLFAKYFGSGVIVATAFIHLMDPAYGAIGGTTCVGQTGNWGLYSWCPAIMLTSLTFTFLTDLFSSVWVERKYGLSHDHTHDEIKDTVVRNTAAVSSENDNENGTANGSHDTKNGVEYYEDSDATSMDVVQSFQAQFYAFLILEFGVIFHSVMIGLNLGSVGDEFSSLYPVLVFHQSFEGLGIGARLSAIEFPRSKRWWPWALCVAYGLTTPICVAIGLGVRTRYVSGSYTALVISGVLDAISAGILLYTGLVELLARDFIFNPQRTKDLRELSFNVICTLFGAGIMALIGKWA

For `O=C1O[C@H]([C@@H](O)CO)C([O-])=C1O.[Na+]` [ascorbate, sodium ascorbate, reference compound], the “effect on the rate of zinc uptake” value [1, 5] was “no effect” and the “effect on the rate of zinc uptake” value [2, 5] was “no effect”.

With `[Cl-].[Cl-].[Sr+2]` [Sr] the “effect on the rate of iron uptake by IRT1” value [3] was “no significant effect”.

In the case of `[Cl-].[Cl-].[Mg+2]` [Mg], the “effect on zinc uptake by the high affinity system” value ([1]; 20 μM added metal, 2 μM 65Zn, five minutes, zinc-limited wild type) is reported as “unaffected”, the “effect on zinc uptake by the low affinity system” value ([2]; 200 μM added metal, 20 μM 65Zn, five minutes, zrt1 mutant cells) is reported as “did not diminish zinc uptake” and the “effect on zrt1 growth in LIM” value [4] is reported as “no effect”.

For `[K+]` [K^+], the “inhibition of zinc uptake by the low affinity system” value ([2]; high extracellular K+ (100 mM)) was “not inhibited”.

`[Cl][Cd][Cl]` [Cd] was tested, and the “inhibition of IRT1-mediated Fe(II) uptake in yeast (summary statement)” value [3] was “inhibitors of IRT1-mediated Fe(II) uptake; also recorded: strongly inhibited” and the “effect on the rate of iron uptake by IRT1” value [3] was “potent inhibitors”.
